# Measured values published in patent US20200323962A1, “LIPOPHILIC PEPTIDE PRODRUGS” (YISSUM RESEARCH DEVELOPMENT COMPANY OF THE HEBREW …, priority 2017, published 2020).
# Where two headings read alike, the source gives them in different places.
# Key:
# [1] = for Papp A→B: Caco-2, Papp (AB); for Papp B→A: Caco-2, Papp (BA)
# [2] = pH 7.4, LogD, pH 7.4 (mean / reported value)
# Description: Log D. Determination of distribution coefficients were performed as follows:
# Incubations were carried out in Eppendorf-type polypropylene microtubes in triplicates. […] Phase separation was assured by centrifugation for 2 min at 6000 rpm. The octanol phase was diluted 100-fold with 40% acetonitrile, and aqueous phase was analyzed without dilution. The samples (both phases) were analyzed using HPLC system coupled with tandem mass spectrometer.
# [3] = system: Caco-2 cells
# [4] = PAMPA, pH 7.4
# Excerpt: The Parallel Artificial Membrane Permeability Assay (PAMPA) is used as an in vitro model of passive, transcellular permeation. […] This assay also allows evaluation of permeability over a large pH range, which is valuable for a preliminary understanding of how orally delivered compounds might be absorbed across the entire gastrointestinal tract. […] Depending upon the types of lipids used and other experimental conditions, PAMPA may be designed to model absorption in gastrointestinal tract (PAMPA-GIT), blood-brain barrier penetration (PAMPA-BBB) or skin penetration (Skin PAMPA). All steps of the PAMPA were carried out according to pION Inc. PAMPA Explorer™ Manual. The main principle of the assay is the incubation of compound in donor chamber (a well in Donor Plate) with aqueous buffer, which is separated from acceptor chamber (a well in Acceptor Plate) with another buffer by a phospholipid or hydrocarbon membrane fixed on a filter support. After the test, concentrations in the corresponding donor and acceptor wells are measured and permeability is calculated. GIT model was simulated using GIT-0 phospholipid mix. […] All compounds were tested in triplicates. Prisma HT buffer (pH 7.4) containing 50 μM test compounds and 0.5% DMSO were added into the Donor Plate wells. Acceptor Sink buffer was added into each well of the acceptor plate. Incubation was done at room temperature for 4 hours without stirring. […] Compounds with low UV-Vis signal were detected by LC-MS/MS method. Then the apparent permeability coefficient was calculated.
# [5] = in vitro; details: human; for efflux ratio at 90 min, 10 µM: Caco-2, pH 7.4, Net efflux (quotient of Papp (BA) to Papp (AB)); for Papp A→B at 90 min, 10 μM: Caco-2, pH 7.4, Papp (AB); for Papp B→A at 90 min, 10 μM: Caco-2, pH 7.4, Papp (BA)
# [6] = system: P-gp; assay: in vitro; details: human, Caco-2, pH 7.4, Net efflux in the presence of Verapamil
compound,measurement,setting,value
"C[C@@H]1NC(=O)[C@H](C)NC(=O)[C@@H](C)N(C)C(=O)[C@H](C)N(C)C(=O)[C@H](C)NC(=O)[C@H](C)NC1=O [1,6CHA, *aAAAA*A]",Papp A→B,[1]; Mean,0.1 ×10⁻⁶ cm/s
same,Papp A→B,[1]; replicate 2,0.1 ×10⁻⁶ cm/s
same,Papp A→B,[1]; replicate 3,0.1 ×10⁻⁶ cm/s
same,Papp B→A,[1]; Mean,0.1 ×10⁻⁶ cm/s
same,Papp B→A,[1]; replicate 1,0.1 ×10⁻⁶ cm/s
same,Papp B→A,[1]; replicate 2,0.1 ×10⁻⁶ cm/s
same,Papp B→A,[1]; replicate 3,0.2 ×10⁻⁶ cm/s
same,logD,[2],-0.97
same,"Papp (AB), replicate 1",[3],0.0 10^−6 cm/s
same,Mass retention,[4],27%
same,"Permeability, Mean",[4],<−7 Log10[10^−6 cm/s]
same,"Permeability, replicate 1",[4],<−7 Log10[10^−6 cm/s]
same,"Permeability, replicate 2",[4],<−7 Log10[10^−6 cm/s]
same,"Permeability, replicate 3",[4],<−7 Log10[10^−6 cm/s]
same,"efflux ratio at 90 min, 10 µM",[5],1.1
C[C@H]1O[C@@H](O[C@H]2[C@@H](O)C[C@H](O[C@H]3[C@@H](O)C[C@H](O[C@H]4CC[C@@]5(C)[C@H](CC[C@@H]6[C@@H]5C[C@@H](O)[C@]5(C)[C@@H](C7=CC(=O)OC7)CC[C@]65O)C4)O[C@@H]3C)O[C@@H]2C)C[C@H](O)[C@@H]1O [Digoxin],"efflux ratio at 90 min, 10 µM",[6],1.5
same,"efflux ratio at 90 min, 10 µM",[5],28.6
same,"Papp A→B at 90 min, 10 μM",[5]; Mean,0.4 ×10⁻⁶ cm/s
same,"Papp A→B at 90 min, 10 μM",[5]; replicate 1,0.4 ×10⁻⁶ cm/s
same,"Papp A→B at 90 min, 10 μM",[5]; replicate 3,0.5 ×10⁻⁶ cm/s
same,"Papp B→A at 90 min, 10 μM",[5]; Mean,12 ×10⁻⁶ cm/s
same,"Papp B→A at 90 min, 10 μM",[5]; replicate 1,9.4 ×10⁻⁶ cm/s
same,"Papp B→A at 90 min, 10 μM",[5]; replicate 2,12 ×10⁻⁶ cm/s
same,"Papp B→A at 90 min, 10 μM",[5]; replicate 3,14.7 ×10⁻⁶ cm/s
